Test results from patent US20260217700A1, “KINESIN KIF18A INHIBITOR AND USE THEREOF” (SHANGHAI APEIRON THERAPEUTICS COMPANY LIMITED, priority 2022, published 2026).
Read-outs that look alike come from different tables or passages of the source.

What was measured:
[1] = system: HT29 cells; assay: CyQuant cell proliferation activity test; assay type: cell-based; settings: read-out: HT-29 Cell Viability_IC50_nM
Method: Materials and Cells: HT29 cells were purchased from Nanjing Cobioer Biosciences Co., Ltd.; RPMI-1640 medium, fetal bovine serum, Trypsin-EDTA (0.25%), 96-well plates, and CyQuant reagents were purchased from ThermoFisher (USA); DMSO was purchased from SIGMA (USA).
Cell Culture: Culture HT29 cells with RPMI-1640 containing 10% fetal bovine serum under the condition of 37° C. and 5% CO2. Only cells in the logarithmic growth phase can be used for the test.
Cell Proliferation Activity Test: Use the CyQuant reagent to detect the proliferation inhibitory activity of compounds on HT29 cells. The cell density was adjusted, and 100 μL per well was inoculated into a 96-well plate (HT29 at 2000 cells per well), then incubated overnight at 37° C. and 5% CO2. Add compounds of various target concentrations (initial concentration of 3000 nM, 3-fold dilution, 9 concentration gradients), and make the DMSO content 0.2%. The cell plate was incubated at 37° C. in 5% CO2 for 3 days. Incubate with CyQuant reagent for 1 h, read the plate by Envision, and calculate IC50 using XLFIT.

[2] = biological target: T1, Human KIF18A (amino acid sequence 1-417) (Homo sapiens, UniProt Q8NI77); assay: Enzymatic activity test (ADP-Glo, microtubule-stimulated ATPase); assay type: biochemical; settings: KIF18A 2.5 nM, ATP 25 μM, microtubules 60 μg/mL, 120 min at ambient temperature, ADP-Glo chemiluminescence; read-out: Enzyme Activity
T1 construct: purchased Viva Biotech (Shanghai) Ltd
T1 sequence (Q8NI77 1-417): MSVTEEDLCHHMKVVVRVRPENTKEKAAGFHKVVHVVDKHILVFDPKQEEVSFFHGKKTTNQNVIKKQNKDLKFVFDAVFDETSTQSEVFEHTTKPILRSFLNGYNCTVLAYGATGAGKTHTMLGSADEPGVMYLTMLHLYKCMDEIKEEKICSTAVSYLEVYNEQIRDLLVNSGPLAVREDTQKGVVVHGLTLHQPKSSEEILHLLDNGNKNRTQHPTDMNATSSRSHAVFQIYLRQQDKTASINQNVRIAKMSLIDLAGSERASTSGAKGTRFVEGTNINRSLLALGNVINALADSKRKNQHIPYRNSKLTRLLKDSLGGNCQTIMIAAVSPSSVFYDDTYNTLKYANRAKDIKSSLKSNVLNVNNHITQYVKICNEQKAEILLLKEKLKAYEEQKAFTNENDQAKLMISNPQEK
Method: Materials: Human KIF18A (amino acid sequence 1-417) was purchased from Viva Biotech (Shanghai) Ltd.; the ADP-Glo™ protein kinase kit was acquired from Promega, USA; tubulin was sourced from Cytoskeleton, USA; and the 384-well assay plate and Envision multifunctional microplate reader were obtained from PerkinElmer, USA.
Enzymatic Activity Test: Dissolve the compound powder in DMSO to prepare a stock solution of 10 mM. Then perform gradient dilution for the compounds in the microplate to achieve a final concentration of […]. Then, add 2.5 μL each of tubulin, compound, ATP, and KIF18A protein to the microplate in sequence for reaction at ambient temperature for 120 min. The final concentrations in the enzyme reaction are 60 μg/mL for microtubules, 25 μM for ATP, and 2.5 nM for KIF18A protein. After the enzyme reaction, add 10 μL of ADP-GLO reaction reagent to each well and incubate at ambient temperature for 30 min. After that, add […] to each well and incubate at ambient temperature for 30 min in the dark. Finally, perform chemiluminescence detection using the PerkinElmer Envision.

[3] = system: OVCAR3 cells; assay: Cell proliferation activity test (CyQUANT Direct); assay type: cell-based; settings: read-out: OVCAR-3 Cell Viability_IC50_nM
Method: Materials and Cells: OVCAR3 cells were purchased from Nanjing Cobioer Biosciences Co., Ltd. RPMI-1640 medium, fetal bovine serum, and the CyQUANT Direct Cell Proliferation Assay kit were purchased from Thermo Fisher Scientific, USA; 96-well cell culture plates were sourced from Corning, USA.
Cell Culture: Culture OVCAR3 cells with RPMI-1640 medium containing 10% fetal bovine serum and incubate them in a 5% CO2 incubator at 37° C. Only cells in the logarithmic growth phase can be used for the test.
Inoculate OVCAR3 cells into a 96-well cell culture plate at 90 μL per well and incubate overnight in a 5% CO2 incubator at 37° C. Dissolve the compound powder in DMSO to prepare a stock solution of 10 mM. Then perform gradient dilution for the compounds in the microplate to achieve a final concentration of 0-10 μM. Add 10 μL of cell culture medium containing compounds to each well to make the final DMSO content 0.2%. Incubate the cell plates in a 5% CO2 incubator at 37° C. for 3 days. Add 100 μL of CyQUANT detection reagent to each well, react at 37° C. for 60 min, and perform fluorescence detection using the PerkinElmer Envision.

[4] = Homo sapiens, HT-29, 72 h, HT29 at 2000 cells per well, 3 days incubation, CyQuant, initial concentration 3000 nM, DMSO 0.2%
[5] = Homo sapiens, OVCAR-3, 72 h, OVCAR3 cells, 3 days incubation, CyQUANT fluorescence detection, DMSO 0.2%

Row | Structure (SMILES) | IC50 [1, 4] [nM] | IC50 [2] [nM] | IC50 [3, 5] [nM] | IC50 [1] [nM] | IC50 [3] [nM]
1 | Cc1cc(NC(=O)c2c(N3CCC4(CC3)CC4)cc(NS(=O)(=O)CCO)n3ccnc23)nc(N2CCC(F)(F)CC2)n1 [Example 1, N-(2-(4,4-difluoropiperidin-1-yl)-6-methylpyrimidin-4-yl)-5-(2-hydroxyethylsulfonamido)-7-(6-azaspiro[2.5]octan-6-yl)imidazo[1,2-a]pyridine-8-carboxamide] | 877 | 112 | 442 | – | –
2 | O=C(Nc1cc2cccnc2c(N2CCC(F)(F)CC2)c1F)c1c(N2CCC3(CC2)CC3)cc(NS(=O)(=O)CCO)c2ccccc12 [Example 6, 2-{6-Azaspiro[2.5]octan-6-yl}-N-[8-(4,4-difluoropiperidin-1-yl)-7-fluoroquinolin-6-yl]-4-(2-hydroxyethanesulfonamido)naphthalene-1-carboxamide] | 74 | 237 | 67 | – | –
3 | Cc1cc(NC(=O)c2c(N3CCC4(CC3)CC4)cc(NS(=O)(=O)CCO)c3ncccc23)nc(N2CCC(F)(F)CC2)n1 [Example 5, N-(2-(4,4-difluoropiperidin-1-yl)-6-methylpyrimidin-4-yl)-8-(2-hydroxyethanesulfonamido)-6-(6-azaspiro[2.5]octan-6-yl)quinoline-5-carboxamide] | 65 | 134 | 36 | – | –
4 | CC(CO)S(=O)(=O)Nc1cc(N2CCC3(CC2)CC3)c(C(=O)Nc2cc3sc(N)nc3c(N3CCC(F)(F)CC3)c2F)c2ccccc12 (stereo not drawn) [Example 10, N-[2-amino-4-(4,4-difluoropiperidin-1-yl)-5-fluoro-1,3-benzothiazol-6-yl]-2-{6-azaspiro[2.5]octan-6-yl}-4-(1-hydroxypropane-2-sulfonamido)naphthalene-1-carboxamide] | 44 | 180 | 35 | – | –
5 | Cc1cc(NC(=O)c2c(N3CCC4(CC3)CC4)cc(NS(=O)(=O)CCO)c3ccccc23)nc(N2CCC(F)(F)CC2)n1 [Example 4, N-(2-(4,4-difluoropiperidin-1-yl)-6-methylpyrimidin-4-yl)-4-(2-_hydroxyethylsulfonamido)-2-(6-azaspiro[2.5]octan-6-yl)-1-naphthamide] | – | 173 | – | 52 | 37
6 | COc1cc(NC(=O)c2c(N3CCC4(CC3)CC4)cc(NS(=O)(=O)CCO)c3ccccc23)nc(N2CCC(F)(F)CC2)n1 [Example 7, 2-{6-Azaspiro[2.5]octan-6-yl}-N-[2-(4,4-difluoropiperidin-1-yl)-6-methoxypyrimidin-4-yl]-4-(2-hydroxyethanesulfonamido)naphthalene-1-carboxamide] | 123 | 635 | 98 | – | –

Now from value to compound, other results behind:

Row | IC50 [1, 4] [nM] | IC50 [2] [nM] | IC50 [3, 5] [nM] | Structure (SMILES) | IC50 [1] [nM] | IC50 [3] [nM]
7 | > 1000 | 280 | 488 | Cc1cc(NC(=O)c2c(N3CCC4(CC3)CC4)cc(NS(=O)(=O)CCO)c3cccnc23)nc(N2CCC(F)(F)CC2)n1 [Example 8, N-(2-(4,4-difluoropiperidin-1-yl)-6-methylpyrimidin-4-yl)-5-((2-hydroxyethyl)sulfonamido)-7-(6-azaspiro[2.5]octan-6-yl)quinoline-8-carboxamide] | – | –
8 | 50 | 29 | 25 | Cc1cc(NC(=O)c2c(N3CCC4(CC3)CC4)cc(NS(=O)(=O)CCO)c3ccoc23)nc(N2CCC(F)(F)CC2)n1 [Example 2, N-(2-(4,4-difluoropiperidin-1-yl)-6-methylpyrimidin-4-yl)-4-(2-hydroxyethylsulfonamido)-6-(6-azaspiro[2.5]octan-6-yl)-benzofuran-7-carboxamide] | – | –
9 | 37 | 176 | 26 | Cc1cc(NC(=O)c2c(N3CCC4(CC3)CC4)cc(NS(=O)(=O)CCO)c3c2CCC3)nc(N2CCC(F)(F)CC2)n1 [Example 9, N-(2-(4,4-difluoropiperidin-1-yl)-6-methylpyrimidin-4-yl)-7-((2-hydroxyethyl)sulfonamido)-5-(6-azaspiro[2.5]oct-6-yl)-2,3-dihydro-1H-indene-4-carboxamide] | – | –
10 | 29 | 170 | 20 | Cc1cc(NC(=O)c2c(N3CCC4(CC3)CC4)cc(NS(=O)(=O)C(C)(C)CO)c3c2CCC3)nc(N2CCC(F)(F)CC2)n1 [Example 11, N-(2-(4,4-difluoropiperidin-1-yl)-6-methylpyrimidin-4-yl)-7-((2-hydroxy-1,1-dimethylethyl)sulfonamide)-5-(6-azaspiro[2.5]oct-6-yl)-2,3-dihydro-1H-indene-4-carboxamide] | – | –
11 | 45 | 27 | 28 | Cc1cc(NC(=O)c2c(N3CCC4(CC3)CC4)cc(NS(=O)(=O)CCO)c3c2OCC3)nc(N2CCC(F)(F)CC2)n1 [Example 3, N-(2-(4,4-difluoropiperidin-1-yl)-6-methylpyrimidin-4-yl)-4-(2-hydroxyethylsulfonamido)-6-(6-azaspiro[2.5]octan-6-yl)-2,3-dihydrobenzofuran-7-carboxamide] | – | –
